Data set [1] can be described thus: Release/stability of API in ammonium bifluoride, stability-indicating RP-HPLC. In kind it is physicochemical. To be noted: for modification of the API by the formulation process: impurities in fresh API vs API released from microparticle formulations.
The test system of data set [2] is patients with intermediate age-related macular degeneration (AMD) and high-risk drusen (HRD). The note with it: subcutaneous administration, ReCLAIM, Ophthalmology Science 2022; cited from earlier work.
Data set [3] deals with age-related visual impairment. The note with it: Alam et al., Disease Models & Mechanisms (2021); cited from earlier work.

Where a SMILES comes first, the peptide text is derived from it. [ ]: non-standard residue; d: D form. Dmt = Cc1cc(O)cc(C)c1C[C@H](N)C(=O)O

`Cc1cc(O)cc(C)c1C[C@H](NC(=O)[C@H](N)CCCNC(=N)N)C(=O)N[C@@H](CCCCN)c1nc(Cc2ccccc2)no1` [Compound I]: the Purity in data set [1] (Control/standard: 16 μg/mL Compound I in H2O) amounted to 99.1%; in data set [1] (Control/standard: 40 μg/mL Compound I in H2O) it was 98.4%; in data set [1] (Spiked: 16 μg/mL Compound I in 0.1M NH4HF2) it was 99.2%; in data set [1] (Spiked: 40 μg/mL Compound I in 0.1M NH4HF2) it was 98.6%. Also, the “modification of the API by the formulation process” value in data set [1] is recorded as “not significantly modified”.
Consider `Cc1cc(O)cc(C)c1C[C@H](NC(=O)[C@H](N)CCCNC(=N)N)C(=O)N[C@@H](CCCCN)C(=O)N[C@@H](Cc1ccccc1)C(N)=O` [elamipretide] (H-[dR][Dmt]KF-NH2), for which the safety and tolerability result in data set [2] is “safe and well-tolerated”. For the same compound, in data set [1], the “modification of the API by the formulation process” value was “not significantly modified”. Also, in data set [3], the “treatment of photopic age-related loss of spatial vision” value is reported as “effective”.

These data come from US20240197623A1, “SILICA-BASED FORMULATIONS OF THERAPEUTIC OLIOGPEPTIDES AND PEPTIDOMIMETICS” (Stealth Bio Therapeutics Inc., priority 2021, published 2024).
